# Laboratory results taken from patent US11433013B2, “Peptide for preventing skin damage caused by air pollutants and for anti-aging, and use thereof” (CAREGEN CO., LTD., priority 2019, dated 2022).
# No end group written: not given here.
# Tested on: CYP1A1
# Assay: CYP1A1 gene expression by RT-PCR, HaCaT cells treated with pollutants
# Type: cell-based, human
# Experimental: In order to confirm an effect of inhibiting inflow of pollutants into the cells via another method, the cells were treated with TCDD, PM, and CSE, and expression levels of CYP1A1 and COX-2 were confirmed. When the activity of AhR is promoted by the pollutants such as TCDD, the AhR acts as a transcription factor and increases expressions of CYP1A1 and COX-2, and thus a degree of the inflow of the pollutants into the cells and whether the AhR is activated or not may be confirmed by measuring expression levels of CYP1A1 and COX-2 genes. TCDD, PM, and CSE were each used after mixing it with the peptide of the present invention and pre-reacting the mixture on a serum-free media for about 1 hour.
# In order to confirm the results of the cells treated with TCDD, first, 78 passages of HaCaT cells were seeded in a 6-well plate at a cell density of 3×10^5/well and cultured for about 16 hours, and then, the culture solution was replaced with a serum-free media, and the resultant was treated with the pre-reacted mixture of TCDD and the peptide for about 2 hours. The treatment included TCDD at a concentration of about 0.1 μM and the peptide at concentrations of about 10 μM, about 50 μM, and about 100 μM, respectively. The negative control was not treated with the peptide but only treated with TCDD, and the positive control was treated with CH223191 at a concentration of about 10 μM and TCDD. The cells were reacted with the mixture for about 2 hours, and RNA was isolated from the resultant. After removing the culture solution, the plate on which the cells were cultured was treated with TRIzol (available from Thermo Fisher Scientific, USA), and a sample including RNA was obtained using a scraper. Then, the sample was treated with chloroform and centrifuged to obtain a supernatant. The supernatant was treated with isopropanol, centrifuged again, and RNA pellets at the bottom were confirmed. Next, the resultant was treated with 70% of ethanol to wash the pellets, and the pellets were sufficiently dried to isolate RNA. […]
sequence,measurement,setting,value
"SYSGVLFFLK [SEQ ID NO: 1, SYSGVLFFLK]",expression level of CYP1A1,"CSE about 2%, peptide about 10, 50, 100 μM, about 2 hours (FIG. 2C)",decreased as a concentration of the peptide increased
same,expression level of CYP1A1,"PM about 25 μg/cm^2, peptide about 10, 50, 100 μM, about 2 hours (FIG. 2B)",decreased as a concentration of the peptide increased
same,expression level of CYP1A1,"TCDD about 0.1 μM, peptide about 10, 50, 100 μM, about 2 hours (FIG. 2A)",decreased as a concentration of the peptide increased
